Assay: Storage stability of amrubicin hydrochloride compositions: rates of by-product generation of degradation products
Format: physicochemical
Method: Various compositions of amrubicin hydrochloride composed of about 91 to about 98% by weight of amrubicin hydrochloride and about 2 to about 9% by weight of water were prepared by exposing dried amrubicin hydrochloride to air whose relative humidity was adjusted (0 to 95%).
The thus-prepared amrubicin hydrochloride compositions having water contents of about 2 to about 9% by weight were stored at 30° C. and investigated rates of by-product generation of the degradation products, i.e., the desaccharification and deamination products.
The relative humidity was adjusted by reference to “Kobunshi Jikken-gaku Koza (Polymer Experiment Course) 5, Kobunshi no Bussei (Physical Properties of Polymers), 100-107 pages (Kyoritsu Shuppan Kabushiki Kaisha)”.

[1] = according to the decrease in water content
[2] = according to the increase in water content

## CC(=O)[C@]1(N)Cc2c(O)c3c(c(O)c2[C@@H](O[C@H]2C[C@H](O)[C@H](O)CO2)C1)C(=O)c1ccccc1C3=O.Cl [amrubicin hydrochloride, (7S,9S)-9-Acetyl-9-amino-7-[(2-deoxy-β-D-erythro-pentapyranosyl)oxy]-7,8,9,10-tetrahydro-6,11-dihydroxy-5,12-nephthacenedione hydrochloride]
[1]
  by-product generation rate of the deamination product: decreased
  by-product generation rate of the desaccharification product: increased
[2]
  by-product generation rate of the deamination product: increased
  by-product generation rate of the desaccharification product: decreased
Stored at 30° C. under an atmosphere at 5 to 90% relative humidity (FIG. 1)
  by-product generation of both desaccharification and deamination products: can be suppressed
Stored at 30° C., water content in composition controlled at 3 to 8% by weight (FIG. 2)
  by-product generation of both desaccharification and deamination products: can be suppressed

Reference: patent publication US8030283B2, “Stabilization of amrubicin hydrochloride” (Dainippon Sumitomo Pharma Co., Ltd., priority 2001, dated 2011)
